Tests used:
Mus musculus [1] = test: Tested for biodistribution of radioactivity after 5 min of intravenous injection in mice blood; format: ADME, organism-based; conditions: in vivo
Mus musculus [2] = test: Tested for biodistribution of radioactivity after 6 hr of intravenous injection in mice blood; format: ADME, organism-based; conditions: in vivo
Mus musculus [3] = test: Tested for biodistribution of radioactivity after 24 hr of intravenous injection in mice liver; format: ADME, organism-based; conditions: in vivo
Mus musculus [4] = test: Tested for biodistribution of radioactivity after 24 hr of intravenous injection in mice blood; format: ADME, organism-based; conditions: in vivo
Mus musculus [5] = test: Tested for biodistribution of radioactivity after 3h of intravenous injection in mice intestines; format: ADME, organism-based, Intestine; conditions: in vivo
Mus musculus [6] = test: Tested for biodistribution of radioactivity after 24 hr of intravenous injection in mice stomach; format: ADME, organism-based; conditions: in vivo
Mus musculus [7] = test: Tested for biodistribution of radioactivity after 5 min of intravenous injection in mice liver; format: ADME, organism-based; conditions: in vivo
Mus musculus [8] = test: Tested for biodistribution of radioactivity after 1 hr of intravenous injection in mice stomach; format: ADME, organism-based; conditions: in vivo
Mus musculus [9] = test: Tested for biodistribution of radioactivity after 1 hr of intravenous injection in mice neck; format: ADME, organism-based; conditions: in vivo
Mus musculus [10] = test: Tested for biodistribution of radioactivity after 6 hr of intravenous injection in mice spleen; format: ADME, organism-based; conditions: in vivo
Mus musculus [11] = test: Tested for biodistribution of radioactivity after 1 hr of intravenous injection in mice spleen; format: ADME, organism-based; conditions: in vivo
Mus musculus [12] = test: Tested for biodistribution of radioactivity after 1 hr of intravenous injection in mice intestines; format: ADME, organism-based, Intestine; conditions: in vivo
Mus musculus [13] = test: Tested for biodistribution of radioactivity after 1 hr of intravenous injection in mice blood; format: ADME, organism-based; conditions: in vivo
Mus musculus [14] = test: Tested for biodistribution of radioactivity after 30 min of intravenous injection in mice lintestines; format: ADME, organism-based, Intestine; conditions: in vivo, 0.5 h
Mus musculus [15] = test: Tested for biodistribution of radioactivity after 5 min of intravenous injection in mice spleen; format: ADME, organism-based; conditions: in vivo
Mus musculus [16] = test: Tested for biodistribution of radioactivity after 3h of intravenous injection in mice kidneys; format: ADME, organism-based, Kidney; conditions: in vivo
Mus musculus [17] = test: Tested for biodistribution of radioactivity after 24 hr of intravenous injection in mice neck; format: ADME, organism-based; conditions: in vivo
Mus musculus [18] = test: Tested for biodistribution of radioactivity after 30 min of intravenous injection in mice neck; format: ADME, organism-based; conditions: in vivo, 0.5 h
Mus musculus [19] = test: Tested for biodistribution of radioactivity after 6 hr of intravenous injection in mice feces; format: ADME, organism-based; conditions: in vivo
Mus musculus [20] = test: Tested for biodistribution of radioactivity after 3h of intravenous injection in mice neck; format: ADME, organism-based; conditions: in vivo
Mus musculus [21] = test: Tested for biodistribution of radioactivity after 6 hr of intravenous injection in mice intestines; format: ADME, organism-based, Intestine; conditions: in vivo
Mus musculus [22] = test: Tested for biodistribution of radioactivity after 24 hr of intravenous injection in mice feces; format: ADME, organism-based; conditions: in vivo
Mus musculus [23] = test: Tested for biodistribution of radioactivity after 1 hr of intravenous injection in mice liver; format: ADME, organism-based; conditions: in vivo
Mus musculus [24] = test: Tested for biodistribution of radioactivity after 24 hr of intravenous injection in mice spleen; format: ADME, organism-based; conditions: in vivo
Mus musculus [25] = test: Tested for biodistribution of radioactivity after 3h of intravenous injection in mice spleen; format: ADME, organism-based; conditions: in vivo
Mus musculus [26] = test: Tested for biodistribution of radioactivity after 3h of intravenous injection in mice blood; format: ADME, organism-based; conditions: in vivo
Mus musculus [27] = test: Tested for biodistribution of radioactivity after 30 min of intravenous injection in mice spleen; format: ADME, organism-based; conditions: in vivo, 0.5 h
Mus musculus [28] = test: Tested for biodistribution of radioactivity after 5 min of intravenous injection in mice neck; format: ADME, organism-based; conditions: in vivo
Mus musculus [29] = test: Tested for biodistribution of radioactivity after 30 min of intravenous injection in mice blood; format: ADME, organism-based; conditions: in vivo, 0.5 h
Mus musculus [30] = test: Tested for biodistribution of radioactivity after 30 min of intravenous injection in mice stomach; format: ADME, organism-based; conditions: in vivo, 0.5 h
Mus musculus [31] = test: Tested for biodistribution of radioactivity after 6 hr of intravenous injection in mice stomach; format: ADME, organism-based; conditions: in vivo
Mus musculus [32] = test: Tested for biodistribution of radioactivity after 1 hr of intravenous injection in mice kidneys; format: ADME, organism-based, Kidney; conditions: in vivo
Mus musculus [33] = test: Tested for biodistribution of radioactivity after 3h of intravenous injection in mice stomach; format: ADME, organism-based; conditions: in vivo
Mus musculus [34] = test: Tested for biodistribution of radioactivity after 6 hr of intravenous injection in mice liver; format: ADME, organism-based; conditions: in vivo
Mus musculus [35] = test: Tested for biodistribution of radioactivity after 6 hr of intravenous injection in mice neck; format: ADME, organism-based; conditions: in vivo
Mus musculus [36] = test: Tested for biodistribution of radioactivity after 24 hr of intravenous injection in mice kidneys; format: ADME, organism-based, Kidney; conditions: in vivo
Mus musculus [37] = test: Tested for biodistribution of radioactivity after 5 min of intravenous injection in mice kidneys; format: ADME, organism-based; conditions: in vivo
Mus musculus [38] = test: Tested for biodistribution of radioactivity after 6 hr of intravenous injection in mice urine; format: ADME, organism-based; conditions: in vivo
Mus musculus [39] = test: Tested for biodistribution of radioactivity after 3h of intravenous injection in mice liver; format: ADME, organism-based; conditions: in vivo
Mus musculus [40] = test: Tested for biodistribution of radioactivity after 6 hr of intravenous injection in mice kidneys; format: ADME, organism-based, Kidney; conditions: in vivo
Mus musculus [41] = test: Tested for biodistribution of radioactivity after 24 hr of intravenous injection in mice intestines; format: ADME, organism-based, Intestine; conditions: in vivo
Mus musculus [42] = test: Tested for biodistribution of radioactivity after 30 min of intravenous injection in mice liver; format: ADME, organism-based; conditions: in vivo, 0.5 h
Mus musculus [43] = test: Tested for biodistribution of radioactivity after 5 min of intravenous injection in mice intestines; format: ADME, organism-based, Intestine; conditions: in vivo
Mus musculus [44] = test: Tested for biodistribution of radioactivity after 30 min of intravenous injection in mice kidneys; format: ADME, organism-based; conditions: in vivo, 0.5 h
Mus musculus [45] = test: Tested for biodistribution of radioactivity after 5 min of intravenous injection in mice stomach; format: ADME, organism-based; conditions: in vivo
Mus musculus [46] = test: Tested for biodistribution of radioactivity after 24 hr of intravenous injection in mice urine; format: ADME, organism-based; conditions: in vivo

Dose/g (Mus musculus [1]): 0.15% | Dose/g (Mus musculus [2]): 1.59% | Dose/organ (Mus musculus [3]): 0.37% | Dose/g (Mus musculus [4]): 0.12% | Dose/organ (Mus musculus [5]): 3.43% | Dose/organ (Mus musculus [6]): 0.11% | Dose/organ (Mus musculus [7]): 92.49% | Dose/organ (Mus musculus [8]): 25.55% | Dose/organ (Mus musculus [9]): 0.34% | Dose/organ (Mus musculus [10]): 0.06% | Dose/organ (Mus musculus [11]): 0.23% | Dose/organ (Mus musculus [12]): 6.73% | Dose/g (Mus musculus [13]): 5.14% | Dose/organ (Mus musculus [14]): 8.28% | Dose/organ (Mus musculus [15]): 0.06% | Dose/organ (Mus musculus [16]): 0.83% | Dose/organ (Mus musculus [17]): 0.01% | Dose/organ (Mus musculus [18]): 0.7% | Dose/organ (Mus musculus [19]): 0.31% | Dose/organ (Mus musculus [20]): 0.25% | Dose/organ (Mus musculus [21]): 3.06% | Dose/organ (Mus musculus [22]): 3.22% | Dose/organ (Mus musculus [23]): 3.68% | Dose/organ (Mus musculus [24]): 0.02% | Dose/organ (Mus musculus [25]): 0.1% | Dose/g (Mus musculus [26]): 1.4% | Dose/organ (Mus musculus [27]): 0.3% | Dose/organ (Mus musculus [28]): 0.04% | Dose/g (Mus musculus [29]): 5.35% | Dose/organ (Mus musculus [30]): 15.65% | Dose/organ (Mus musculus [31]): 13.22% | Dose/organ (Mus musculus [32]): 1.73% | Dose/organ (Mus musculus [33]): 17.5% | Dose/organ (Mus musculus [34]): 1.13% | Dose/organ (Mus musculus [35]): 0.21% | Dose/organ (Mus musculus [36]): 0.04% | Dose/organ (Mus musculus [37]): 0.01% | Dose/organ (Mus musculus [38]): 26.84% | Dose/organ (Mus musculus [39]): 1.44% | Dose/organ (Mus musculus [40]): 0.57% | Dose/organ (Mus musculus [41]): 0.21% | Dose/organ (Mus musculus [42]): 18.72% | Dose/organ (Mus musculus [43]): 0.16% | Dose/organ (Mus musculus [44]): 2.07% | Dose/organ (Mus musculus [45]): 0.25% | Dose/organ (Mus musculus [46]): 79.66%
Structure (SMILES): CCc1ccc(O)c(I)c1
